Patent publication US20230139025A1, “ANTIOXIDANT FOR USE IN TREATMENT FOR RIBE” (Institute of Hematology and Blood Diseases Hospital, CAMS & …, priority 2021, published 2023)

B1: IL-1α: cytokine added to the in-vitro culture system (protein, UniProt P01583 113-271, looked up)
Interleukin-1 alpha: SAPFSFLSNVKYNFMRIIKYEFILNDALNQSIIRANDQYLTAAALHNLDEAVKFDMGAYKSSKDDAKITVILRISKTQLYVTAQDEDQPVLLKEMPEIPKTITGSETNLLFFWETHGTKNYFTSVAHPNLFIATKQDYWVCLAGGPPSITDFQILENQA

Assays:
[1] = tested on: in vitro bystander human HSPCs; test: Transplantation of in vitro antioxidant-treated bystander human CD34+ cells into NOG mice; type: in vivo; details: for HPC (CD34+CD38+) engraftment in BM: antioxidant treatment in vitro, FIG. 9C
Text: (A) Collected human CD34^+ cells from FIG. 8(A) were transplanted into NOG mice. Mean human cell engraftment (left) after human CD34^+ cells collected from FIG. 8(A) transplanted into NOG mice and bars represent the fold difference of engraftment levels from each group (right, n = 6 to 8 per group). (B-C) Frequency of human CD34^+CD38^- cells (B) and CD34^+CD38^+ cells (C) in the BM of recipient; (D) Mean engraftment level of human cells in the spleen of recipients; and (E) Number of hematopoietic clones formed by human CD34^+ cells of each group (^∗p < 0.05, ^∗∗p <[…] 0.01, ^∗∗∗p < 0.001). For the in vitro RIBE model, we cocultured CB-CD34^+ cells with 10 Gy irradiated or nonirradiated human BM cells using a transwell system. After 17 hours of coculture, the CD34^+ cells in the insert (in vitro bystander cells) were collected for subsequent experiments (FIG. 2). Female NOG mice were irradiated at a dose of 2.0 Gy one day before transplantation. The homing human CD34^+ cells were transplanted into recipients at a dose of 5,000 cells/mouse intravenously. For serial transplantations, 1×10^7 whole BM cells from each primary recipient were intravenously transplanted into secondary recipient mice that were exposed to sublethal irradiation (2.0 Gy). Next, we asked whether the pharmacological inhibition of ROS elevation could protect human HSPCs from functional degradation. We used three antioxidants: N-acetyl-L-cysteine (NAC), sulforaphane (SF) and resveratrol (Res), to eliminate excessive ROS from bystander human HSPCs in vitro. For the in vitro RIBE, the BM cells were treated with NAC, SF or Res for 30 minutes before irradiation, and the antioxidants continued to exist in the coculture system until the CB CD34^+ cells were collected for analysis and some were transplanted into sublethally irradiated NOG mice intravenously (FIG. 7).

[2] = tested on: in vivo bystander human HSPCs; test: In vivo RIBE model with antioxidant treatment, transplantation of homing human CD34+ cells into NOG mice; details: FIG. 11C
Procedure: NOG mice were given antioxidants for 7 days before irradiation.
For the in vivo RIBE model, CD34^+ cells purified from human cord blood (CB) were intravenously injected into 10 Gy irradiated (RIBE group) or nonirradiated (Control group) NOD/Shi-scid/IL-2Rγ^null (NOG) mice separately. After 17 hours, homing human CD34^+ cells (in vivo bystander cells) from recipients were individually detected or sorted for subsequent experiments (FIG. 1).
For the in vivo RIBE, the mice were treated with NAC, SF or Res for 7 days. CB CD34^+ cells were injected into nonirradiated or 10 Gy irradiated NOG mice in either the control, RIBE or RIBE with antioxidant treatment groups. After 17 hours, the homing human CD34^+ cells were sorted individually and transplanted into sublethally irradiated NOG mice (FIG. 10).

[3] = tested on: HSPCs; test: ROS levels of HSPCs in cytokine-treated groups; type: cell-based, human
[4] = tested on: HSPCs (CD34+ cells); test: γ-H2AX protein by Western blot after cytokine addition to in vitro culture system; type: cell-based, human; details: cytokine added to in vitro culture system, FIG. 6H
Procedure: (A) Flow cytometric analysis of fold change of ROS levels by DCF-DA staining in human CD34^+ cells of in vitro RIBE model; (B) Western blot verified the expression of related signaling pathway at the protein levels.
For the in vitro RIBE model, we cocultured CB-CD34^+ cells with 10 Gy irradiated or nonirradiated human BM cells using a transwell system. After 17 hours of coculture, the CD34^+ cells in the insert (in vitro bystander cells) were collected for subsequent experiments (FIG. 2).
Cytokines may exert multiple functions involving stress and inflammatory responses, which are also associated with RIBE. We observed several cytokines including IL-1, IL-6, IL-8, TNF-α, etc., were increased after irradiation (FIG. 6F). […] Moreover, we added IL-1α or IL-1ra to the in-vitro culture system and then measured the γ-H2AX protein by Western blot.

Molecule	HPC (CD34+CD38+) engraftment in BM [1]	HPC (CD34+CD38+) engraftment in BM [2]	myeloid and erythroid engraftment ([1]; antioxidant administration in vitro, BM, vs RIBE group)	ROS levels of HSPCs [3]	DNA damage of HSPCs (γ-H2AX protein level) [4]
C[S+]([O-])CCCCN=C=S (centres unmarked) [SF, sulforaphane]	could improve HPC engraftment	–	–	–	–
Oc1ccc(C=Cc2cc(O)cc(O)c2)cc1 [Res, resveratrol]	could improve HPC engraftment	could improve HPC engraftment in vivo	significantly higher myeloid and erythroid engraftment than the RIBE group	–	–
IL-1ra: cytokine added to the in-vitro culture system	–	–	–	did not change	can slightly increase DNA damage of bystander HSPCs
B1	–	–	–	did not change	could loosen DNA damage of HSPCs both in the control and RIBE groups
